In PubChem BioAssay (NCI):
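Method: 48-hour compound exposure of cells in 96-well plates, five concentrations, linear interpolation of endpoints. At the GI50, growth is halved. Definition used: TGI = concentration required for complete inhibition of growth.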

What was measured:
Assay in all cases: NCI anticancer screen, dose series, 48 h
HOP-62 NSCLC = tested on: HOP-62 NSCLC
NCI-H23 lung = tested on: NCI-H23 lung
SK-OV-3 ovarian = tested on: SK-OV-3 ovarian
HOP-92 NSCLC = tested on: HOP-92 NSCLC
COLO 205 colon = tested on: COLO 205 colon
HCT-15 colon = tested on: HCT-15 colon
UO-31 renal = tested on: UO-31 renal
NCI-H226 lung = tested on: NCI-H226 lung
UACC-257 melanoma = tested on: UACC-257 melanoma
SN12C renal = tested on: SN12C renal
MOLT-4 leukemia = tested on: MOLT-4 leukemia
NCI/ADR-RES ovarian = tested on: NCI/ADR-RES ovarian
IGROV1 ovarian = tested on: IGROV1 ovarian
MCF7 breast = tested on: MCF7 breast
OVCAR-8 ovarian = tested on: OVCAR-8 ovarian
PC-3 prostate = tested on: PC-3 prostate
SK-MEL-28 melanoma = tested on: SK-MEL-28 melanoma
ACHN renal = tested on: ACHN renal
OVCAR-4 ovarian = tested on: OVCAR-4 ovarian
BT-549 breast = tested on: BT-549 breast
SF-268 CNS = tested on: SF-268 CNS
SW-620 colon = tested on: SW-620 colon
U251 CNS = tested on: U251 CNS
T-47D breast = tested on: T-47D breast
RPMI-8226 leukemia = tested on: RPMI-8226 leukemia
HCC-2998 colon = tested on: HCC-2998 colon
A498 renal = tested on: A498 renal
UACC-62 melanoma = tested on: UACC-62 melanoma
NCI-H522 lung = tested on: NCI-H522 lung
SK-MEL-5 melanoma = tested on: SK-MEL-5 melanoma
NCI-H460 lung = tested on: NCI-H460 lung
HS 578T breast = tested on: HS 578T breast
M14 melanoma = tested on: M14 melanoma
SF-539 CNS = tested on: SF-539 CNS
SNB-19 CNS = tested on: SNB-19 CNS
KM12 colon = tested on: KM12 colon
A549 NSCLC = tested on: A549 NSCLC
CCRF-CEM leukemia = tested on: CCRF-CEM leukemia
SF-295 CNS = tested on: SF-295 CNS
DU-145 prostate = tested on: DU-145 prostate
786-0 renal = tested on: 786-0 renal
LOX IMVI melanoma = tested on: LOX IMVI melanoma
K-562 leukemia = tested on: K-562 leukemia
MDA-MB-231 breast = tested on: MDA-MB-231 breast
SNB-75 CNS = tested on: SNB-75 CNS
EKVX NSCLC = tested on: EKVX NSCLC
HCT-116 colon = tested on: HCT-116 colon
CAKI-1 renal = tested on: CAKI-1 renal
SR leukemia = tested on: SR leukemia
OVCAR-5 ovarian = tested on: OVCAR-5 ovarian
HT29 colon = tested on: HT29 colon
OVCAR-3 ovarian = tested on: OVCAR-3 ovarian
TK-10 renal = tested on: TK-10 renal
MDA-MB-435 = tested on: MDA-MB-435
HL-60(TB) leukemia = tested on: HL-60(TB) leukemia
SK-MEL-2 melanoma = tested on: SK-MEL-2 melanoma
MALME-3M melanoma = tested on: MALME-3M melanoma

`COc1ccc(CN2c3ccccc3CCc3ccccc32)cc1F` was tested, and the GI50 (HOP-62 NSCLC) was 0.529 µM, the TGI (HOP-62 NSCLC) was > 100 µM and the GI50 (NCI-H23 lung) was 0.672 µM. The TGI (NCI-H23 lung) was > 100 µM, the GI50 (SK-OV-3 ovarian) was 0.471 µM and the TGI (SK-OV-3 ovarian) was > 100 µM. For the same compound, the GI50 (HOP-92 NSCLC) was 0.587 µM, the TGI (HOP-92 NSCLC) was 48 µM and the GI50 (COLO 205 colon) was 0.335 µM. The TGI (COLO 205 colon) was 1.39 µM, the GI50 (HCT-15 colon) was 0.428 µM and the TGI (HCT-15 colon) was > 100 µM. The GI50 (UO-31 renal) was 0.814 µM, the TGI (UO-31 renal) was > 100 µM and the GI50 (NCI-H226 lung) was 2.43 µM. The TGI (NCI-H226 lung) was > 100 µM, the GI50 (UACC-257 melanoma) was > 100 µM and the TGI (UACC-257 melanoma) was > 100 µM. For the same compound, the GI50 (SN12C renal) was 1.95 µM, the TGI (SN12C renal) was > 100 µM and the GI50 (MOLT-4 leukemia) was 0.554 µM. The TGI (MOLT-4 leukemia) was > 100 µM, the GI50 (NCI/ADR-RES ovarian) was 0.456 µM and the TGI (NCI/ADR-RES ovarian) was > 100 µM. For the same compound, the GI50 (IGROV1 ovarian) was 1.57 µM, the TGI (IGROV1 ovarian) was > 100 µM and the GI50 (MCF7 breast) was 0.352 µM. For the same compound, the TGI (MCF7 breast) was > 100 µM, the GI50 (OVCAR-8 ovarian) was 0.88 µM and the TGI (OVCAR-8 ovarian) was > 100 µM. For the same compound, the GI50 (PC-3 prostate) was 0.489 µM, the TGI (PC-3 prostate) was > 100 µM and the GI50 (SK-MEL-28 melanoma) was 0.82 µM. The TGI (SK-MEL-28 melanoma) was > 100 µM, the GI50 (ACHN renal) was 0.604 µM and the TGI (ACHN renal) was > 100 µM. The GI50 (OVCAR-4 ovarian) was 0.868 µM, the TGI (OVCAR-4 ovarian) was > 100 µM and the GI50 (BT-549 breast) was 0.776 µM. For the same compound, the TGI (BT-549 breast) was 41.2 µM, the GI50 (SF-268 CNS) was 0.66 µM and the TGI (SF-268 CNS) was > 100 µM. The GI50 (SW-620 colon) was 0.386 µM, the TGI (SW-620 colon) was > 100 µM and the GI50 (U251 CNS) was 0.496 µM. For the same compound, the TGI (U251 CNS) was > 100 µM, the GI50 (T-47D breast) was 0.394 µM and the TGI (T-47D breast) was > 100 µM. The GI50 (RPMI-8226 leukemia) was 0.644 µM, the TGI (RPMI-8226 leukemia) was > 100 µM and the GI50 (HCC-2998 colon) was 8.9 µM. For the same compound, the TGI (HCC-2998 colon) was > 100 µM, the GI50 (A498 renal) was 0.339 µM and the TGI (A498 renal) was > 100 µM. For the same compound, the GI50 (UACC-62 melanoma) was 0.804 µM, the TGI (UACC-62 melanoma) was > 100 µM and the GI50 (NCI-H522 lung) was 0.609 µM. The TGI (NCI-H522 lung) was > 100 µM, the GI50 (SK-MEL-5 melanoma) was 0.522 µM and the TGI (SK-MEL-5 melanoma) was 14.2 µM. The GI50 (NCI-H460 lung) was 0.419 µM, the TGI (NCI-H460 lung) was > 100 µM and the GI50 (HS 578T breast) was 0.487 µM. For the same compound, the TGI (HS 578T breast) was > 100 µM, the GI50 (M14 melanoma) was 0.354 µM and the TGI (M14 melanoma) was > 100 µM. For the same compound, the GI50 (SF-539 CNS) was 0.287 µM, the TGI (SF-539 CNS) was 0.958 µM and the GI50 (SNB-19 CNS) was 0.697 µM. The TGI (SNB-19 CNS) was > 100 µM, the GI50 (KM12 colon) was 0.387 µM and the TGI (KM12 colon) was > 100 µM. The GI50 (A549 NSCLC) was 0.732 µM, the TGI (A549 NSCLC) was > 100 µM and the GI50 (CCRF-CEM leukemia) was 0.515 µM. For the same compound, the TGI (CCRF-CEM leukemia) was > 100 µM, the GI50 (SF-295 CNS) was 0.333 µM and the TGI (SF-295 CNS) was > 100 µM. The GI50 (DU-145 prostate) was 0.481 µM, the TGI (DU-145 prostate) was > 100 µM and the GI50 (786-0 renal) was 0.572 µM. The TGI (786-0 renal) was > 100 µM, the GI50 (LOX IMVI melanoma) was 0.725 µM and the TGI (LOX IMVI melanoma) was > 100 µM. For the same compound, the GI50 (K-562 leukemia) was 0.402 µM, the TGI (K-562 leukemia) was > 100 µM and the GI50 (MDA-MB-231 breast) was 1.35 µM. For the same compound, the TGI (MDA-MB-231 breast) was 79.7 µM, the GI50 (SNB-75 CNS) was 0.277 µM and the TGI (SNB-75 CNS) was > 100 µM. For the same compound, the GI50 (EKVX NSCLC) was 1.55 µM, the TGI (EKVX NSCLC) was > 100 µM and the GI50 (HCT-116 colon) was 0.413 µM. The TGI (HCT-116 colon) was > 100 µM, the GI50 (CAKI-1 renal) was 0.549 µM and the TGI (CAKI-1 renal) was > 100 µM. The GI50 (SR leukemia) was 0.463 µM, the TGI (SR leukemia) was > 100 µM and the GI50 (OVCAR-5 ovarian) was 1.9 µM. The TGI (OVCAR-5 ovarian) was > 100 µM, the GI50 (HT29 colon) was 0.32 µM and the TGI (HT29 colon) was 1.9 µM. The GI50 (OVCAR-3 ovarian) was 0.285 µM, the TGI (OVCAR-3 ovarian) was 0.785 µM and the GI50 (TK-10 renal) was 0.611 µM. For the same compound, the TGI (TK-10 renal) was > 100 µM.
With `C=CC[C@@]1(C(=O)OC)[C@H](Sc2ccccc2)C1(C)C` the TGI (HOP-62 NSCLC) was > 100 µM, the TGI (NCI-H23 lung) was 97.3 µM and the TGI (SK-OV-3 ovarian) was > 100 µM. The TGI (HOP-92 NSCLC) was 76.4 µM, the TGI (COLO 205 colon) was > 100 µM and the TGI (HCT-15 colon) was > 100 µM. The TGI (UO-31 renal) was > 100 µM, the TGI (NCI-H226 lung) was > 100 µM and the TGI (UACC-257 melanoma) was 96.9 µM. For the same compound, the TGI (SN12C renal) was 76.8 µM, the TGI (MOLT-4 leukemia) was 34.3 µM and the TGI (MDA-MB-435) was > 100 µM. For the same compound, the TGI (NCI/ADR-RES ovarian) was > 100 µM, the TGI (IGROV1 ovarian) was > 100 µM and the TGI (MCF7 breast) was 74.1 µM. For the same compound, the TGI (OVCAR-8 ovarian) was > 100 µM, the TGI (PC-3 prostate) was > 100 µM and the TGI (SK-MEL-28 melanoma) was > 100 µM. For the same compound, the TGI (ACHN renal) was > 100 µM, the TGI (OVCAR-4 ovarian) was > 100 µM and the TGI (BT-549 breast) was > 100 µM. The TGI (SF-268 CNS) was > 100 µM, the TGI (SW-620 colon) was > 100 µM and the TGI (U251 CNS) was > 100 µM. For the same compound, the TGI (T-47D breast) was > 100 µM, the TGI (RPMI-8226 leukemia) was 26.4 µM and the TGI (HCC-2998 colon) was 96.2 µM. For the same compound, the TGI (A498 renal) was > 100 µM, the TGI (HL-60(TB) leukemia) was 45.8 µM and the TGI (UACC-62 melanoma) was > 100 µM. For the same compound, the TGI (NCI-H522 lung) was 87.9 µM, the TGI (SK-MEL-5 melanoma) was 44.3 µM and the TGI (NCI-H460 lung) was > 100 µM. The TGI (HS 578T breast) was > 100 µM, the TGI (SK-MEL-2 melanoma) was 64.1 µM and the TGI (M14 melanoma) was > 100 µM. The TGI (MALME-3M melanoma) was 84.9 µM, the TGI (SF-539 CNS) was > 100 µM and the TGI (SNB-19 CNS) was > 100 µM. For the same compound, the TGI (KM12 colon) was > 100 µM, the TGI (A549 NSCLC) was > 100 µM and the TGI (CCRF-CEM leukemia) was > 100 µM. The TGI (SF-295 CNS) was > 100 µM, the TGI (DU-145 prostate) was > 100 µM and the TGI (786-0 renal) was > 100 µM. For the same compound, the TGI (MDA-MB-231 breast) was > 100 µM, the TGI (SNB-75 CNS) was 80.8 µM and the TGI (EKVX NSCLC) was > 100 µM. For the same compound, the TGI (HCT-116 colon) was > 100 µM, the TGI (CAKI-1 renal) was > 100 µM and the TGI (OVCAR-5 ovarian) was > 100 µM. For the same compound, the TGI (HT29 colon) was > 100 µM, the TGI (OVCAR-3 ovarian) was > 100 µM and the TGI (TK-10 renal) was > 100 µM.
